Results published in patent publication US8012956B2, “Tropane compounds” (Exelixis, Inc., priority 2007, dated 2011).

Target: HSP90 (Homo sapiens, UniProt P07900)
Test: HSP90 inhibition (HSP90 IC50)
Assay type: biochemical

First: COc1ccc(CNC(=O)c2ccc(N3[C@@H]4CC[C@H]3C[C@@H](NC(=O)c3cccc(OC)c3C)C4)nc2)cc1 [6-[3-endo-({[2-methyl-3-(methyloxy)phenyl]carbonyl}amino)-8-azabicyclo[3.2.1]oct-8-yl]-N-{[4-(methyloxy)phenyl]methyl}pyridine-3-carboxamide]
Second: COc1cccc(C(=O)N[C@H]2C[C@H]3CC[C@@H](C2)N3c2ccc(C(=O)NCc3ccc(C(F)(F)F)cc3)cn2)c1C [6-[3-endo-({[2-methyl-3-(methyloxy)phenyl]carbonyl}amino)-8-azabicyclo[3.2.1]oct-8-yl]-N-{[4-(trifluoromethyl)phenyl]methyl}pyridine-3-carboxamide]
The IC50 of the first is lower: < 500 nM for the first, 1000 to 2000 nM for the second. The first is the more potent here.

First: COc1cccc(C(=O)N[C@H]2C[C@H]3CC[C@@H](C2)N3c2ccc(C(N)=O)cn2)c1C [6-[3-endo-({[2-methyl-3-(methyloxy)phenyl]carbonyl}amino)-8-azabicyclo[3.2.1]oct-8-yl]pyridine-3-carboxamide]
Second: CCCc1c(OC)cccc1C(=O)N[C@H]1C[C@H]2CC[C@@H](C1)N2c1ccc(C(=O)NCc2ccccc2)cn1 [6-[3-endo-({[3-(methyloxy)-2-propylphenyl]carbonyl}amino)-8-azabicyclo[3.2.1]oct-8-yl]-N-(phenylmethyl)pyridine-3-carboxamide]
The IC50 of the first is lower: 500 to 999 nM for the first, 2000 to 10000 nM for the second.

First: COc1cccc(C(=O)N[C@H]2C[C@H]3CC[C@@H](C2)N3c2ccc(C(=O)NCc3cccc(N4CCN(C)CC4)c3)cn2)c1C [6-[3-endo-({[2-methyl-3-(methyloxy)phenyl]carbony}amino)-8-azabicyclo[3.2.1]oct-8-yl]-N-{[3-(4-methylpiperazin-1-yl)phenyl]methyl}pyridine-3-carboxamide]
Second: CSc1cccc(C(=O)NC2CC3CCC(C2)N3c2ccc(C(=O)N[C@@H](C)c3ccc(N4CCN(C)CC4)cc3)cn2)c1C (stereo partly drawn) [6-[3-endo-({[2-methyl-3-(methylthio)phenyl]carbonyl}amino)-8-azabicyclo[3.2.1]oct-8-yl]-N-{(1S)-1-[4-(4-methylpiperazin-1-yl)phenyl]ethyl}pyridine-3-carboxamide]
The IC50 of the first is lower: < 500 nM for the first, 500 to 999 nM for the second. The first is the more potent here.

First: COc1cccc(C(=O)N[C@H]2C[C@H]3CC[C@@H](C2)N3c2ccc(C(=O)NCc3ccccc3)cn2)c1CCCNC(C)C [6-[3-endo-({[2-{3-[(1-methylethyl)amino]propyl}-3-(methyloxy)phenyl]carbonyl}amino)-8-azabicyclo[3.2.1]oct-8-yl]-N-(phenylmethyl)pyridine-3-carboxamide]
Second: C=CCc1c(OC)cccc1C(=O)N[C@H]1C[C@H]2CC[C@@H](C1)N2c1ccc(C(=O)NCc2ccccc2)cn1 [6-[3-endo-({[3-(methyloxy)-2-prop-2-en-1-ylphenyl]carbonyl}amino)-8-azabicyclo[3.2.1]oct-8-yl]-N-(phenylmethyl)pyridine-3-carboxamide]
The IC50 of the first is higher: 1000 to 2000 nM for the first, 500 to 999 nM for the second. The second is the more potent here.

First: Cc1c(C(=O)NC2CC3CCC(C2)N3c2ccc(C(=O)N[C@@H](C)c3ccc(N4CCN(C)CC4)cc3)cn2)cccc1N(C)C (stereo partly drawn) [6-[3-endo-({[3-(dimethylamino)-2-methylphenyl]carbonyl}amino)-8-azabicyclo[3.2.1]oct-8-yl]-N-{(1S)-1-[4-(4-methylpiperazin-1-yl)phenyl]ethyl}pyridine-3-carboxamide]
Second: Cc1cc(CO)ccc1C(=O)N[C@H]1C[C@H]2CC[C@@H](C1)N2c1ccc(C(=O)NCc2ccccc2)cn1 [6-[3-endo-({[4-(hydroxymethyl)-2-methylphenyl]carbonyl}amino)-8-azabicyclo[3.2.1]oct-8-yl]-N-(phenylmethyl)pyridine-3-carboxamide]
The IC50 of the first is higher: 2000 to 10000 nM for the first, < 500 nM for the second.

`Cc1cc(CO)ccc1C(=O)N[C@H]1C[C@H]2CC[C@@H](C1)N2c1ccc(C(=O)NCc2cccnc2)cn1` [6-[3-endo-({[4-(hydroxymethyl)-2-methylphenyl]carbonyl}amino)-8-azabicyclo[3.2.1]oct-8-yl]-N-(pyridin-3-ylmethyl)pyridine-3-carboxamide] was tested, and the IC50 was < 500 nM.
